Source: the OligoGym collection
Where “and” joins values, the source holds several entries; their conditions need not be identical. Equal entries are not always repeated. After the bases stand the sugars from the 5' end (letter, count) and the backbone: PS all phosphorothioate, else s phosphorothioate and o phosphodiester by linkage. Methylation of C is not given here. e = 2'-O-(2-methoxyethyl) (MOE); k = constrained ethyl (cEt); d = 2'-deoxy (DNA); m = 2'-O-methyl

Target: HSD17B13
Conditions: ASO, HepaRG

Sequence | target mRNA inhibition (1 µM) | also measured
TACTTGAACAGTCTTA (sugars k3 d10 k3, PS) | 48% | 
TAGAATACGCTGAGAG (sugars k3 d10 k3, PS) | 47% | 
TAGAATAGTCTTCAGC (sugars k3 d10 k3, PS) | 70% | target mRNA inhibition (0.02 µM): 0%; target mRNA inhibition (0.078 µM): 0%; target mRNA inhibition (0.313 µM): 16%; target mRNA inhibition (1.25 µM): 52%; target mRNA inhibition (5 µM): 77%
TAGAGGGTCCACTTTT (sugars k3 d10 k3, PS) | 36% | 
TAGAGTCGGTCACCTT (sugars k3 d10 k3, PS) | 65% | 
TAGAGTGAATCATTCA (sugars k3 d10 k3, PS) | 75% | target mRNA inhibition (0.02 µM): 16%; target mRNA inhibition (0.078 µM): 33%; target mRNA inhibition (0.313 µM): 60%; target mRNA inhibition (1.25 µM): 84%; target mRNA inhibition (5 µM): 92%
TAGCAAAACACTTGCT (sugars k3 d10 k3, PS) | 21% | 
TAGCAAGCCAACAGAG (sugars k3 d10 k3, PS) | 21% | 
TAGCAATTTAGCAAGA (sugars k3 d10 k3, PS) | 54% | 
TAGCTAAGGGAGAGTG (sugars k3 d10 k3, PS) | 9% | 
TAGCTAAGTATACTTT (sugars k3 d10 k3, PS) | 10% | 
TAGCTTTTGTCCACCT (sugars kkdddddddddkekek, PS) | 71% | target mRNA inhibition (0.02 µM): 0%; target mRNA inhibition (0.078 µM): 3%; target mRNA inhibition (0.313 µM): 29%; target mRNA inhibition (1.25 µM): 53%; target mRNA inhibition (5 µM): 48%
TAGCUGTGCACTCATT (sugars k3 d1 m1 d8 k3, PS) | 60% | 
TAGCUTTTGTCCACCT (sugars k3 d1 m1 d8 k3, PS) | 67% and 50% | target mRNA inhibition (0.02 µM): 8%; target mRNA inhibition (0.078 µM): 9%; target mRNA inhibition (0.313 µM): 26%; target mRNA inhibition (1.25 µM): 54%; target mRNA inhibition (5 µM): 78%
TAGGAAGTGATCCATA (sugars k3 d10 k3, PS) | 30% | 
TAGGATGATGTTCATG (sugars k3 d10 k3, PS) | 72% | 
TAGGATGTTGACCTCA (sugars k3 d10 k3, PS) | 19% | 
TAGGATTAATTCCCTT (sugars k3 d10 k3, PS) | 0% | 
TAGTATAGTTATCTTC (sugars k3 d1 m1 d8 k3, PS) | 13% | 
TAGTATTTGGGTGTTC (sugars k3 d10 k3, PS) | 27% | 
TAGTCCTAGGGAGGAG (sugars k3 d10 k3, PS) | 68% | 
TAGTCTTCAGCAAAGT (sugars kkdddddddddkekek, PS) | 35% | 
TAGTCTTGATGTAGTG (sugars k3 d1 m1 d8 k3, PS) | 56% | 

Sequence | target mRNA inhibition (1 µM) | also measured
TAGTGTAAGCTGAGAG (sugars kkdddddddddkekek, PS) | 68% | target mRNA inhibition (0.02 µM): 24%; target mRNA inhibition (0.078 µM): 25%; target mRNA inhibition (0.313 µM): 37%; target mRNA inhibition (1.25 µM): 51%; target mRNA inhibition (5 µM): 81%
TATACTAGGATTAGAA (sugars k3 d10 k3, PS) | 2% | 
TATACTGTCCCAGCAT (sugars k3 d10 k3, PS) | 40% | 
TATAGACTGGGTAGGA (sugars k3 d1 m1 d8 k3, PS) | 30% | 
TATAGAGGGTCCACTT (sugars k3 d10 k3, PS) | 17% | 
TATAGTTATCTTCTCA (sugars kkdddddddddkekek, PS) | 45% | 
TATATAACATGGCTGG (sugars k3 d10 k3, PS) | 8% | 
TATATGAGGTCTGTAT (sugars k3 d10 k3, PS) | 42% | 
TATCAATGCCTTAGCC (sugars k3 d10 k3, PS) | 15% | 
TATCAGAAACTTATAC (sugars k3 d10 k3, PS) | 0% | 
TATCATACCACATACC (sugars k3 d10 k3, PS) | 24% | 
TATCTTATAAGACTAT (sugars k3 d10 k3, PS) | 43% | 
TATGAGTAAAGATCTA (sugars k3 d10 k3, PS) | 10% | 
TATGUAATAGCCAGTA (sugars k3 d1 m1 d8 k3, PS) | 43% | 
TATTAGAAGTCAGCCC (sugars k3 d1 m1 d8 k3, PS) | 29% | 
TATTAGAAGTCAGCCC (sugars k3 d10 k3, PS) | 27% | 
TATTAGAAGTCAGCCC (sugars kkdddddddddkekek, PS) | 36% | 
TATTATGTGATTGAGT (sugars k3 d1 m1 d8 k3, PS) | 28% | 
TATTCCCAACGCAACA (sugars k3 d10 k3, PS) | 62% | 
TATTCTGTGGCATGGC (sugars k3 d10 k3, PS) | 71% | 
TATTGGTAAGTATTCC (sugars kkdddddddddkekek, PS) | 36% | 
TATTTCGCTACTGTAG (sugars k3 d10 k3, PS) | 48% | 
TCAAATGAGGCGGCAC (sugars k3 d10 k3, PS) | 46% | 

Sequence | target mRNA inhibition (1 µM) | also measured
TCAAATTAAGATGTCC (sugars k3 d10 k3, PS) | 6% | 
TCAACCTGCACACCAT (sugars k3 d10 k3, PS) | 72% | target mRNA inhibition (0.02 µM): 14%; target mRNA inhibition (0.078 µM): 32%; target mRNA inhibition (0.313 µM): 47%; target mRNA inhibition (1.25 µM): 71%; target mRNA inhibition (5 µM): 84%
TCAACTAAACATGACA (sugars k3 d10 k3, PS) | 77% | target mRNA inhibition (0.02 µM): 0%; target mRNA inhibition (0.078 µM): 0%; target mRNA inhibition (0.313 µM): 42%; target mRNA inhibition (1.25 µM): 69%; target mRNA inhibition (5 µM): 89%
TCAAGACATTCTAGCC (sugars k3 d10 k3, PS) | 79% | 
TCAATTTATCATACCA (sugars k3 d10 k3, PS) | 26% | 
TCACATATGTGAAGAG (sugars k3 d10 k3, PS) | 27% | 
TCACCAACGACTCCAA (sugars k3 d10 k3, PS) | 19% | 
TCAGATCCCGTTCTTG (sugars k3 d10 k3, PS) | 59% | 
TCATAAGTAGTCTGCC (sugars k3 d10 k3, PS) | 62% | 
TCATAGTGGACTTCAT (sugars k3 d1 m1 d8 k3, PS) | 44% | 
TCATAGTGGACTTCAT (sugars k3 d9 k3 e1, PS) | 54% | 
TCATTAAGCTTAGTAT (sugars k3 d10 k3, PS) | 31% | 
TCCAAAAGTGTCCTCG (sugars k3 d10 k3, PS) | 31% | 
TCCAAGGAGTGCATCT (sugars k3 d10 k3, PS) | 46% | 
TCCAATTTAAATCAGG (sugars k3 d10 k3, PS) | 61% | 
TCCAGTAAAAAATTGG (sugars k3 d10 k3, PS) | 12% | 
TCCAGTAGGTGTGTTT (sugars k3 d10 k3, PS) | 47% | 
TCCATAATAATAGCTC (sugars kkdddddddddkekek, PS) | 41% | 
TCCATCTATCAGACTT (sugars k3 d10 k3, PS) | 42% | 
TCCATGCAAAAGCATT (sugars k3 d10 k3, PS) | 62% | 
TCCATTGAATCTTCAA (sugars k3 d10 k3, PS) | 57% | 
